# Square brackets hold non-standard residues; d marks the D form. Peptide text beside a SMILES is read from it. ξ: configuration not given here. Ile(3ξ) = CCC(C)[C@H](N)C(=O)O; Thr(3ξ) = CC(O)[C@H](N)C(=O)O; Nle = CCCC[C@H](N)C(=O)O
# How the values were obtained:
# [1] = tested on: patients with SBS-IF or SBS-II; conditions: in vivo
# Procedure: Patients were treated with once weekly 5 mg apraglutide for four weeks. Apraglutide was provided as a freeze-dried powder for reconstitution in sterile water prior to injection, and treatments were administered as subcutaneous injections in the abdominal area. A 72-hour metabolic balance study was performed at baseline and at the end of the treatment period (starting one day after the fourth and last apraglutide injection). Each 72-hour metabolic balance study was performed during a five-day hospital admission. On the day of admission, patients were instructed to create a 24-hour drinking menu based on their habitual oral fluid intake. The drinking menu was to be followed during each balance study. On the second day of admission, just after the patients had urinated and emptied their stoma bags or defecated, the balance study was initiated. […] Daily PS and compliance to the predefined drinking menu was documented during admissions.
# First, second and fourth apraglutide injections were performed at the hospital. Safety assessments included observation for injection site reactions, vital signs, blood samples, electrocardiogram (ECG), urinalysis and body weight. They were performed at baseline, during each injection of the trial drug, four days after first injection, at the end of treatment and 4-6 weeks after last dosing at the end of the trial, as shown in Table 20. Liver enzymes were measured prior to each drug administration.
# clinical = conditions: human, in vivo; for half-life: t1/2, arithmetic mean ± SD; for CL/F: sc
# Procedure: 23 healthy adult volunteers received 6 weekly subcutaneous doses of apraglutide (1, 5, or 10 mg) or placebo and were followed for a further 6 weeks after the last dose. Blood collections were controlled for diet, lifestyle, and diurnal effects. […] PK data underwent non-compartmental analysis and PD data were analyzed by ANCOVA.
# As with citrulline, a statistical steady-state analysis per dose level was performed for apraglutide using Helmert's approach.
# patients with SBS-IF = assay: Safety assessments (adverse events) in Phase 2 SBS-IF trial (Example 5)
# Procedure: In Part A, patients were treated with 5 mg apraglutide or placebo once weekly for 4 weeks. After a washout period of 6-10 weeks, the alternate treatment was given. Part A was followed by a second washout period of 6-10 weeks before patients entered Part B. Part B was an open-label dosing regimen with 10 mg apraglutide given once weekly for 4 weeks. The additional open-label treatment period (Part B) was included to investigate the safety and tolerability of 10 mg dosing. The procedures during each treatment period were consistent. The trial drug was provided as a freeze-dried powder for reconstitution and was administered as subcutaneous injections in the abdominal area.
# Safety assessments were performed for each treatment period and included observation for injection site reactions, vital signs, blood samples, electrocardiogram (ECG), dipstick urinalysis, body weight and liver enzymes. […] Additionally, liver enzymes were measured prior to each drug administration.
# [2] = whole trial, incl. placebo periods
compound,measurement,setting,value
"CCCC[C@H](NC(=O)[C@H](CCC(=O)O)NC(=O)[C@H](CC(=O)O)NC(=O)[C@H](CO)NC(=O)[C@H](Cc1ccccc1)NC(=O)[C@H](CO)NC(=O)CNC(=O)[C@H](CC(=O)O)NC(=O)CNC(=O)[C@@H](N)Cc1c[nH]cn1)C(=O)N[C@H](Cc1ccccc1)C(=O)N[C@H](C(=O)N[C@H](C(=O)N[C@@H](CC(C)C)C(=O)N[C@@H](CC(=O)O)C(=O)N[C@@H](CC(C)C)C(=O)N[C@@H](CC(C)C)C(=O)N[C@@H](C)C(=O)N[C@@H](C)C(=O)N[C@@H](CCCNC(=N)N)C(=O)N[C@@H](CC(=O)O)C(=O)N[C@@H](Cc1ccccc1)C(=O)N[C@H](C(=O)N[C@@H](CC(N)=O)C(=O)N[C@@H](Cc1c[nH]c2ccccc12)C(=O)N[C@@H](CC(C)C)C(=O)N[C@H](C(=O)N[C@@H](CCC(N)=O)C(=O)N[C@H](C(=O)N[C@@H](CCCCN)C(=O)N[C@H](C(=O)N[C@H](C(=O)N[C@@H](CC(=O)O)C(N)=O)C(C)O)C(C)CC)C(C)O)C(C)CC)C(C)CC)C(C)CC)C(C)O (stereo partly drawn) [apraglutide, L-histidyl-glycyl-L-aspartyl-glycyl-L-seryl-L-phenylalanyl-L-seryl-L-aspartyl-L-glutamyl-L-norleucyl-D-phenylalanyl-L-threonyl-Lisoleucyl-L-leucyl-L-aspartyl-L-leucyl-L-leucyl-L-alanyl-L-alanyl-L-arginyl-L-aspartyl-L-phenylalanyl-L-isoleucyl-L-asparaginyl-Ltryptophanyl-L-leucyl-L-isoleucyl-L-glutaminyl-L-threonyl-L-lysyl-L-isoleucyl-L-threonyl-Laspartic acid amide] (H-HGDGSFSDE[Nle][dF][Thr(3ξ)][Ile(3ξ)]LDLLAARDF[Ile(3ξ)]NWL[Ile(3ξ)]Q[Thr(3ξ)]K[Ile(3ξ)][Thr(3ξ)]D-NH2)",Deaths,[1],no deaths occurred
same,Vd/F,clinical; 5 mg,55.4 L
same,half-life,clinical; 5 mg,73 h
same,Vd/F,clinical; 10 mg,105 L
same,half-life,clinical; 10 mg,76.3 h
same,CL/F,clinical; 1 mg,12.2 mL/min
same,CL/F,clinical; 5 mg,11.4 mL/min
same,CL/F,clinical; 10 mg,14.4 mL/min
same,"Any related adverse events, number of patients",patients with SBS-IF; 5 mg (N = 8),8
same,"Decreased appetite, number of patients",patients with SBS-IF; 5 mg (N = 8),1
same,"Edema, number of patients",patients with SBS-IF; 5 mg (N = 8),2
same,"Gastrointestinal stoma complication, number of patients",patients with SBS-IF; 5 mg (N = 8),5
same,"Gastrointestinal stoma output abnormal, number of patients",patients with SBS-IF; 5 mg (N = 8),4
same,"Gastrointestinal stoma output decreased, number of patients",patients with SBS-IF; 5 mg (N = 8),3
same,"Increased weight, number of patients",patients with SBS-IF; 5 mg (N = 8),1
same,"Polyuria, number of patients",patients with SBS-IF; 5 mg (N = 8),4
same,"Stoma complication, number of patients",patients with SBS-IF; 5 mg (N = 8),6
same,"Thirst decreased, number of patients",patients with SBS-IF; 5 mg (N = 8),3
same,"Injection site reactions, number of patients",patients with SBS-IF; 5 mg dose group,one
same,"Any related adverse events, number of patients",patients with SBS-IF; 10 mg (N = 8),8
same,"Decreased appetite, number of patients",patients with SBS-IF; 10 mg (N = 8),2
same,"Edema, number of patients",patients with SBS-IF; 10 mg (N = 8),2
same,"Gastrointestinal stoma complication, number of patients",patients with SBS-IF; 10 mg (N = 8),5
same,"Gastrointestinal stoma output abnormal, number of patients",patients with SBS-IF; 10 mg (N = 8),4
same,"Gastrointestinal stoma output decreased, number of patients",patients with SBS-IF; 10 mg (N = 8),6
same,"Increased weight, number of patients",patients with SBS-IF; 10 mg (N = 8),2
same,"Polyuria, number of patients",patients with SBS-IF; 10 mg (N = 8),6
same,"Stoma complication, number of patients",patients with SBS-IF; 10 mg (N = 8),6
same,"Thirst decreased, number of patients",patients with SBS-IF; 10 mg (N = 8),4
same,"Injection site reactions, number of patients",patients with SBS-IF; 10 mg dose group,three
same,Safety and tolerability in words,patients with SBS-IF; 5 and 10 mg once weekly for four weeks,well tolerated and safe
same,"Any related adverse events, number of patients","patients with SBS-IF; Total, all periods (N = 8)",8
same,"Decreased appetite, number of patients","patients with SBS-IF; Total, all periods (N = 8)",3
same,"Edema, number of patients","patients with SBS-IF; Total, all periods (N = 8)",4
same,"Gastrointestinal stoma complication, number of patients","patients with SBS-IF; Total, all periods (N = 8)",5
same,"Gastrointestinal stoma output abnormal, number of patients","patients with SBS-IF; Total, all periods (N = 8)",5
same,"Gastrointestinal stoma output decreased, number of patients","patients with SBS-IF; Total, all periods (N = 8)",6
same,"Increased weight, number of patients","patients with SBS-IF; Total, all periods (N = 8)",3
same,"Polyuria, number of patients","patients with SBS-IF; Total, all periods (N = 8)",7
same,"Stoma complication, number of patients","patients with SBS-IF; Total, all periods (N = 8)",6
same,"Thirst decreased, number of patients","patients with SBS-IF; Total, all periods (N = 8)",5
same,Deaths,patients with SBS-IF; whole trial,no deaths
same,"Injection site reactions, number of patients",patients with SBS-IF; whole trial,Three
same,Serious adverse events related to the trial drug,patients with SBS-IF; whole trial,None of these were considered related to the trial drug
same,Patients reporting serious adverse events,patients with SBS-IF; [2],5 patients
same,"Serious adverse events, number of cases",patients with SBS-IF; [2],8 cases
